Where two headings read alike, the source gives them in different places.
Legend:
[1] = system: RS4;11 cells; experiment: RS4;11 cell viability (CCK-8) assay; type: cell-based, human; conditions: 4 days, read-out: RS4;11 IC50 (Bcl-2 dependent)
Experimental: RS4;11 cells were obtained from American Type Culture Collection (ATCC). They were used within three months of thawing fresh vials. Cells were maintained in the recommended culture medium with 10% FBS at 37° C. and an atmosphere of 5% CO2.
The effect of representative Compounds of the Disclosure on cell viability was determined using Cell Counting Kit-8 (CCK-8) assay (Dojindo, Rockville, Md.) according to the manufacturer's instructions. 200 μL of a RS4;11 cell suspension (10000 cells/well) in culture medium were seeded into 96-well plates and cultured overnight. Each tested compound was serially diluted in culture medium, and 20 μL of the compound dilution was added to the corresponding well of the cell plate. After the addition of the tested compound, the cells were incubated at 37° C. in an atmosphere of 5% CO2 for 4 days. At the end of 4 days, 10 μL of CCK-8 solution was added to each well of the plate and incubated for 1-4 hours. The plates were read at 450 nm on the microplate spectrophotometer (Epoch2, BioTek). The readings were normalized to the vehicle cells, and the IC50 was calculated by nonlinear regression analysis using GraphPad Prism 5 software.

[2] = system: RS4;11 leukemia xenograft; experiment: RS4;11 leukemia xenograft model; type: in vivo; conditions: oral gavage, nude mice
Experimental: The antitumor activity of Cpd. No. 6 (compound 6) was also studied in the RS4;11 leukemia xenograft model. Human RS4;11 tumor cells were injected into nude mice and treatment started on day 11 when the tumor size reached approximately 100 mm^3. Cpd. No. 6 was administered via oral gavage at indicated doses and schedules. Cpd.

[3] = biological target: Bcl-xL (Homo sapiens (Human), UniProt Q07817); experiment: Fluorescence polarization competitive binding assay, Bcl-xL; conditions: FP competition with Flu-BAK probe; read-out: Inhibitory activity IC50 Bcl-xL
Bcl-xL, sequence (Q07817 whole entry): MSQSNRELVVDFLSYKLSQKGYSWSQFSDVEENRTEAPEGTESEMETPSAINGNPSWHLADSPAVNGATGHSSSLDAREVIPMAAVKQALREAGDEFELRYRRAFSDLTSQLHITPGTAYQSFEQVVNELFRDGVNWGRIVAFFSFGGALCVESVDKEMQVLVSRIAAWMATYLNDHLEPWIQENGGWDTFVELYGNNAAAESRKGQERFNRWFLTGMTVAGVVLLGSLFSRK
Experimental: (§1) Fluorescence polarization values were measured using the Infinite M-1000 plate reader (Tecan U.S., Research Triangle Park, N.C.) in Microfluor 1 96-well, black, round-bottom plates (Thermo Scientific). […] Plates were mixed and incubated at room temperature for 1 hour with gentle shaking to assure equilibrium. […] Equilibrium dissociation constants (Kd) were then calculated by fitting the sigmoidal dose-dependent FP increases as a function of protein concentrations using Graphpad Prism 5.0 software (Graphpad Software, San Diego, Calif.).
(§2) Mixtures of 5 μl of the tested inhibitors in DMSO and 120 μl of pre-incubated protein/probe complexes in the assay buffer were added into assay plates and incubated at room temperature for 2 hours with gentle shaking. […] FP values were measured as described above. IC50 values were determined by nonlinear regression fitting of the competition curves.

[4] = biological target: Bcl-2 (Homo sapiens (Human), UniProt P10415); experiment: Fluorescence polarization competitive binding assay, Bcl-2; conditions: FP competition with Flu-BIM probe; read-out: Inhibitory activity IC50 Bcl-2
Bcl-2, sequence (P10415 whole entry): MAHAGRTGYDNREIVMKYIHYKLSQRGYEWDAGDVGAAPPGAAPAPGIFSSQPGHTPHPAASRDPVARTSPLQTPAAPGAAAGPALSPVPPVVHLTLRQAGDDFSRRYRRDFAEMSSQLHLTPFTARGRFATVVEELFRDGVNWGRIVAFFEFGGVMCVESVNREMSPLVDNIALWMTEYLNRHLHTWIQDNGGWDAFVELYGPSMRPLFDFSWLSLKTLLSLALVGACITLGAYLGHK
Experimental: as §1, §2

[5] = biological target: Mcl-1 (Homo sapiens (Human), UniProt Q07820); experiment: Fluorescence polarization competitive binding assay, Mcl-1; conditions: FP competition with Flu-BID probe; read-out: Inhibitory activity IC50 Mcl-1
Mcl-1, sequence (Q07820 whole entry): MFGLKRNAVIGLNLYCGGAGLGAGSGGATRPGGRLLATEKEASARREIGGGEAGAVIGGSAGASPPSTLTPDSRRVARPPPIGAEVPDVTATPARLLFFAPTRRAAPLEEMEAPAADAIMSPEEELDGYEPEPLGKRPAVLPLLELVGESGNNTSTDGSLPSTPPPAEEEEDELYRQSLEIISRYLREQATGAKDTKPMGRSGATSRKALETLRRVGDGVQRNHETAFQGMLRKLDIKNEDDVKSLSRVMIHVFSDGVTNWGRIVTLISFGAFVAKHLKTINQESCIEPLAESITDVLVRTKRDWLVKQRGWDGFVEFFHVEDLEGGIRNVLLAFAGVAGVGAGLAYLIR
Experimental: as §1, §2

Question: With “2-((1H-pyrrolo[2,3-b]pyridin-5-yl)oxy)-4-(1-((6- (4-chlorophenyl)-2-oxaspiro[3.5]non-6-en-7- yl)methyl)-1,2,3,6-tetrahydropyridin-4-yl)-N-((3- nitro-4-(((tetrahydro-2H-pyran-4- yl)methyl)amino)phenyl)sulfonyl)benzamide [compound 9]” as the compound, how does the IC50 [1] read?
Answer: 28 nM

Question: Which “antitumor activity (tumor growth)” value ([2]; FIG. 3) does the source give for O=C(NS(=O)(=O)c1ccc(NC[C@H]2COCCO2)c([N+](=O)[O-])c1)c1ccc(N2CCN(CC3=C(c4ccc(Cl)cc4)CC4(CCC4)CC3)CC2)cc1Oc1cnc2[nH]ccc2c1 [Cpd. No. 6, (S)-N-((4-(((1,4-dioxan-2-yl)methyl)amino)-3-nitrophenyl)sulfonyl)-2-((1H-pyrrolo[2,3-b]pyridin-5-yl)oxy)-4-(4-((6-(4-chlorophenyl)spiro[3.5]non-6-en-7-yl)methyl)piperazin-1-yl)benzamide] here?
Answer: inhibits tumor growth

Question: What about the mouse weight ([2]; FIG. 4) of the same compound?
Answer: does not cause weight loss in mice

Question: How did the IC50 [3] turn out when O=C(NS(=O)(=O)C1=CC2C(C=NN2CC2CCOCC2)C([N+](=O)[O-])=C1)c1ccc(N2CCN(CC3=C(c4ccc(Cl)cc4)CC4(CCC4)CC3)CC2)cc1Oc1cnc2[nH]ccc2c1 (stereo not drawn) [compound 62, 2-((1H-pyrrolo[2,3-b]pyridin-5-yl)oxy)-4-(4-((6-(4-chlorophenyl)spiro[3.5]non-6-en-7-yl)methyl)piperazin-1-yl)-N-((4-nitro-1-((tetrahydro-2H-pyran-4-yl)methyl)-3a,7a-dihydro-1H-indazol-6-yl)sulfonyl)benzamide] was run?
Answer: 4 nM

Question: What about the IC50 [4] of the same compound?
Answer: 1.6 nM

Question: And the IC50 ([1]; Homo sapiens, RS4-11, 96 h)?
Answer: 46 nM

Question: With “(R)-N-((4-(((1,4-dioxan-2-yl)methyl)amino)-3- nitrophenyl)sulfonyl)-2-((1H-pyrrolo[2,3- b]pyridin-5-yl)oxy)-4-(1-((6-(4-chlorophenyl)-2- oxaspiro[3.5]non-6-en-7-yl)methyl)-1,2,3,6- tetrahydropyridin-4-yl)benzamide [Cpd. No. 5]” as the compound, how does the IC50 [1] read?
Answer: 22 nM

Question: With “(R)-N-((4-(((1,4-dioxan-2-yl)methyl)amino)-3- nitrophenyl)sulfonyl)-2-((1H-pyrrolo[2,3- b]pyridin-5-yl)oxy)-4-(4-((6-(4-chlorophenyl)-2- oxaspiro[3.5]non-6-en-7-yl)methyl)piperazin-1- yl)benzamide [compound 8]” as the compound, how does the IC50 [5] read?
Answer: > 5000 nM

Question: What about the IC50 [1] of the same compound?
Answer: 3.7 nM

— patent US11718613B2, “N-(phenylsulfonyl)benzamides and related compounds as Bcl-2 inhibitors” (THE REGENTS OF THE UNIVERSITY OF MICHIGAN, priority 2016, dated 2023)
